Several values for one entry are separate records, joined by “and”; a condition that tells them apart may be missing. Identical values can stand only once. Activity calls are given as the source filed them. How the calls were made is not given here; tested in parental BL2 cells.

The first experiment in a line: cell cytotoxicity, dose response, cytotoxicity control, CellTiter-Glo (AID 1259333).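 Further: 0% = vehicle neutral controls and -100% = reference inhibitor positive controls.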 Conditions: cytotoxicity, CellTiter-Glo ATP luminescence; at 3 µM (top of the series).
With `O=C(Nc1ccccc1F)N1C[C@@H]2N[C@H](C1)C2c1ccc(/C=C/c2ccccc2)cc1` (stereo partly drawn), the activity change, negative = cytotoxicity was 21.6% (inactive).

The experiment is the same for the next values; noted with them: cytotoxicity, CellTiter-Glo ATP luminescence; at 3.5 µM (top of the series).
In the case of `O=C(Nc1ccc(C(F)(F)F)cc1)Nc1ccc2c(c1)[C@H]1C[C@@H](CC(=O)N3CCc4ccccc4C3)O[C@@H](CO)[C@H]1O2`, the activity change, negative = cytotoxicity was 30.5% (inactive).

Staying with this experiment, now noted: cytotoxicity, CellTiter-Glo ATP luminescence; at 10 µM (top of the series).
Turning to `CCc1cnc(N2[C@H](C#N)[C@H](c3ccc(C#Cc4ccccc4F)cc3)[C@H]2CO)s1`, the activity change, negative = cytotoxicity was 12.3% (inactive). Still for that read-out and setting: with `Cn1cnc(S(=O)(=O)N2C[C@@H]3N[C@H](C2)C3c2ccc(-c3ccccc3F)cc2)c1` (stereo partly drawn) the figure was 36.7% (inactive); with `CC1(C)C(=O)C=C[C@@]2(C)C1C=C[C@]1(C)C2CC[C@@]2(C)[C@H](c3ccoc3)OC(=O)[C@H]3O[C@]321` (stereo partly drawn), 15.6% (inactive).

Turning to `COCCn1c(C)cc(C(=O)COC(=O)c2ccc(Br)o2)c1C`, the activity change, negative = cytotoxicity was 28.5% (inactive).

For the molecule `O=C(C1CCCC1)N1CC(=O)N2[C@@H](CO)[C@@H](c3ccc(C#CCc4ccccc4)cc3)[C@@H]2C1`, the activity change, negative = cytotoxicity is 53.6% (inactive). As for `C[C@H]1CN([C@@H](C)CO)C(=O)c2cccc(NC(=O)Nc3ccc(F)cc3)c2O[C@H]1CN(C)S(=O)(=O)c1ccc(Cl)cc1`, the activity change, negative = cytotoxicity was 55% (inactive). On the same count and under the same terms, with `CC1CC(C)(C)Nc2ccc(OC(=O)c3ccco3)cc21` (stereo not drawn) the figure was 203% (inactive); with `COc1ccc(C#Cc2ccc([C@@H]3[C@H](CO)N4CCCCN(C(=O)Nc5cccc(F)c5)C[C@@H]34)cc2)cc1`, 50.4% (inactive). Still for that read-out and setting: with `O=C(CCN1CCC(c2ccccc2)C1)c1ccc2c(c1)OCCO2` (stereo not drawn) the figure was 28% (inactive); with `Cc1ccc2nc(C(F)(F)F)c(C#N)c(N)c2c1`, 1.7% (inactive); with `N#CC(C#N)=NNc1cccc(Cl)c1`, 69.4% (inactive). On the same count and under the same terms, with `CCN1C(=O)C(CC(=O)Nc2ccc(OC)cc2)N(CCc2ccc(F)cc2)C1=S` (stereo not drawn) the figure was 24.7% (inactive).

With `O=C(C1CCOCC1)N1CC(=O)N2[C@H](C1)[C@@H](c1ccc(C#CCc3ccccc3)cc1)[C@@H]2CO`, the activity change, negative = cytotoxicity was 47.9% (inactive). On the same count and under the same terms, for `CC1CCOC(=O)C=CC=CC(=O)OC2CC3OC4C5OC5(C)C(O)CC4(COC(=O)C1O)C2(C)C31CO1` (stereo not drawn) the value was 6.8% (inactive); for `CC12CN3CC(C)(CN(C1)C3c1ccc3c(c1)OCO3)C2=O` (stereo not drawn), 48.6% (inactive); for `CC(=NNc1ccc2ccccc2n1)c1ccccc1O`, -29.4% (inactive). Regarding `O=C(c1ccc(F)cc1)N1C[C@@H]2N[C@H](C1)C2c1ccc(/C=C/c2ccccc2)cc1` (stereo partly drawn), the activity change, negative = cytotoxicity is 12.7% (inactive) and 35.5% (inactive).

As to `Nc1ccc(-c2cccc3c(=O)cc(N4CCOCC4)oc23)cc1`, the activity change, negative = cytotoxicity was 15.1% (inactive). Take `CC=Cc1cc2c(c(=O)o1)C(=O)C(O)C(C)O2` (stereo not drawn): the activity change, negative = cytotoxicity was 37.6% (inactive). Regarding `C/C=C/c1ccc(C2[C@H]3CNC[C@@H]2N3Cc2cccc(OC)c2)cc1` (stereo partly drawn), the activity change, negative = cytotoxicity is 18% (inactive). On the same count and under the same terms, for `COc1ccc(CN(CCC(c2ccc(F)cc2)C2CCOC(C)(C)C2)C(=O)c2ccco2)cc1` (stereo not drawn) the value was 263% (inactive); for `COc1cccc(S(=O)(=O)N(C)C[C@@H]2OCc3ccccc3-c3c(n(C)c4ccccc34)C(=O)N([C@H](C)CO)C[C@@H]2C)c1`, 41.8% (inactive); for `Cc1ccc(-c2nn3c(C)nnc3c3ccccc23)cc1S(=O)(=O)NCc1ccccc1`, 16.1% (inactive). On the same count and under the same terms, with `CC(C)OC(=O)CC1C(=O)NCCN1C(=S)NC(=O)c1cccs1` (stereo not drawn) the figure was 19.9% (inactive); with `Cc1ccc(P(=O)(CSC(=N)N)c2ccc(C)cc2)cc1`, -36.8% (inactive). On to `N#C[C@H]1[C@H](c2ccc(C#Cc3ccccc3F)cc2)[C@H](CO)N1C(=O)C1CC1`, for which the activity change, negative = cytotoxicity was 91.9% (inactive). Still for that read-out and setting: for `Cc1cc(C(=O)COC(=O)c2cccn2C)c(C)n1Cc1ccco1` the value was 23.8% (inactive); for `COc1ccc2c3c([nH]c2c1)[C@H](CO)N(C(=O)Nc1cccc(F)c1)CC31CCN(S(=O)(=O)c2cccc(C)c2)CC1`, 35% (inactive); for `CC[C@@]1(O)C(=O)OCc2c1cc1n(c2=O)Cc2cc3cc(O)ccc3nc2-1`, 12.3% (inactive). The same measure, in the same setting: with `O=C(Nc1nnc(C2CC2)s1)C1CC(=O)N(c2ccc3c(c2)OCCO3)C1` (stereo not drawn) the figure was 52.3% (inactive). On the same count and under the same terms, for `O=C(O)c1ccc(Nc2nc3c(s2)CCCC3)cc1` the value was 38.4% (inactive). On to `CCCCn1c(NC(=O)c2ccc(Br)o2)c(S(=O)(=O)c2ccccc2)c2nc3ccccc3nc21`, for which the activity change, negative = cytotoxicity was 62.4% (inactive). Regarding `C[C@H]1CN([C@@H](C)CO)C(=O)c2c(c3ccccc3n2C)-c2ccccc2CO[C@H]1CN(C)S(=O)(=O)c1ccc([N+](=O)[O-])cc1`, the activity change, negative = cytotoxicity was 75.5% (inactive).

Take `Oc1cc2c(cc1C(c1ccc(Br)cc1)N1CCCC1)OCO2` (stereo not drawn): the activity change, negative = cytotoxicity is 7.99% (inactive). Same read-out and setting: for `C=C1C(=O)OC2C=C(CO)C3OC3C3OC3(C)CC(OC(=O)/C(=C/C)COC(C)=O)C12` (stereo not drawn) the value was 17.5% (inactive); for `COc1ccc(C#Cc2ccc([C@H]3[C@H]4CN(C(=O)c5ccncc5)CCCCN4[C@H]3CO)cc2)cc1`, 30.7% (inactive). As for `COc1ccc(Cl)cc1NC(=O)Nc1cc(C)nc2ccccc12`, the activity change, negative = cytotoxicity is 60.2% (inactive). Same read-out and setting: with `O=C(C#Cc1ccccc1)c1ccccc1` the figure was 43.8% (inactive); with `C[C@@H]1CN([C@H](C)CO)C(=O)c2cc(NS(=O)(=O)c3cccs3)ccc2O[C@@H](C)CCCCO[C@H]1CN(C)Cc1ccc(Cl)c(Cl)c1`, 16.1% (inactive). On the same count and under the same terms, with `COc1ccc(C=Cc2ccc3ccccc3n2)c(OC)c1` the figure was 26.9% (inactive); with `N#C[C@H]1[C@H](c2ccc(C#Cc3ccc(F)cc3)cc2)[C@@H](CO)N1C(=O)C1CCC1`, -4.11% (inactive); with `Cc1ccccc1C(=O)N1CCC(C(=O)Nc2nc3ccc(F)cc3s2)CC1`, 18.4% (inactive). In the case of `COc1ccc(CN2CC3(CN(C(=O)Cc4ccccc4)C3)c3c([nH]c4cc(OC)ccc34)[C@H]2CO)cc1`, the activity change, negative = cytotoxicity was 21.8% (inactive). As for `CCOc1ncccc1C(=O)OC(C)C(=O)Nc1ccc(Cl)cn1` (stereo not drawn), the activity change, negative = cytotoxicity was 24.8% (inactive). Turning to `COc1cccc(S(=O)(=O)N(C)C[C@@H]2OCc3ccccc3-c3c(n(C)c4ccccc34)C(=O)N([C@@H](C)CO)C[C@@H]2C)c1`, the activity change, negative = cytotoxicity was 3.23% (inactive).

The experiment is the same for the next values; noted with them: cytotoxicity, CellTiter-Glo ATP luminescence; at 11 µM (top of the series).
As to `C[C@@H]1CN([C@H](C)CO)C(=O)Cc2cc(NC(=O)Cc3cn(C)c4ccccc34)ccc2O[C@H]1CN(C)Cc1ccc(C(F)(F)F)cc1`, the activity change, negative = cytotoxicity was 6.35% (inactive).

The values above are taken from PubChem BioAssay AID1259333 (Broad Institute, 2017).
